Where two headings read alike, the source gives them in different places.
Legend:
SJCRH-30 RMS xenograft = type: in vivo; settings: SJCRH-30, RMS
Protocol: Expand human RMS cancer cells SJCRH-30 (St. Jude Children's Research Hospital) in culture, harvest, and inject 5×10^6 cells in 200 μL of HBSS subcutaneously into the right rear flank of female athymic nude mice (20-22 g, Harlan Laboratories).
For all studies, measure tumor growth and body weight twice per week beginning on the seventh day after implantation. When tumor size reaches 150-300 mm^3, randomize animals and group into groups of 4-7 animals. Prepare test compound in an appropriate vehicle (e.g. vehicle can be 20% Captisol® in sterile water) and administer subcutaneously for three consecutive days followed by a four day dosing holiday and repeat for a minimum of four weeks. Tumor response is determined by tumor volume measurement performed twice per week during the course of treatment.
The vehicle used in this study is 20% Captisol® in sterile water and is administered subcutaneously for three consecutive days followed by a four day dosing holiday and repeated for a minimum of four weeks. […] The treatment period lasts 4 weeks.

HT-29 cells = test: ECtfs (Two-Fold Sensitization) Assay; type: cell-based; settings: gemcitabine alone
Protocol: An inhibitor of CHK1 can potentiate the anti-proliferative activity of gemcitabine (or other cytotoxics) through abrogation of the intra-S phase checkpoint, resulting in sustained and increased DNA damage. The capacity for continued tumor cell proliferation after DNA damage can be analyzed by determining the ability of cells to replicate their DNA. […] In this assay, cells are treated with gemcitabine, and then with the compound of Example 2. Following a recovery period, cells are assayed for the ability to incorporate radioactive thymidine into DNA during S phase. The ECtfs parameter is a measure of the concentration of a CHK1 inhibitor necessary to reduce by half the GI90 concentration of gemcitabine, measured in this assay in the absence of CHK1 inhibition. HT-29 cells (obtained from ATCC), are grown in RPMI 1640 plus (Gibco™) 10% (v/v) heat inactivated FBS. These cells are plated at 1.3×10^3 per well on Corning Costar 96-well tissue culture plates. After plating the cells, the tissue culture plates are held at room temperature for 45 minutes, before returning to 37° C. Plates are incubated for 24 hours prior to gemcitabine addition. Before gemcitabine addition, medium is removed from all wells and replaced with 150 μL per well of fresh RPMI medium. Gemcitabine stocks at 10 mM are prepared in PBS. Gemcitabine dilutions were prepared at 4× concentrations in RPMI medium and added to wells at 50 μL per well. The highest final concentration of gemcitabine used is 80 μM and dilutions proceed by four-fold steps. Two hours later, gemcitabine-containing medium is removed from the wells and replaced with 150 μL per well of fresh RPMI medium. […] The volume of addition is 50 μL. Compound dilutions proceed by two-fold steps, starting at 5000 nM. […] Twenty μL of this solution is added to each well, yielding 1 µCi/well of ^3H-thymidine. Cells are labeled for twenty-two hours. The medium containing ^3H-thymidine is thoroughly removed from the wells. The plates are then frozen at −20° C., for several hours. To harvest the DNA containing incorporated ^3H-thymidine, plates are thawed for several minutes, and then 120 μL per well of 0.1 N NaOH is added to each well. Each plate is then incubated at 37° C., with slow mixing on a rotator, for 10 minutes. DNA is harvested with a Filtermate 196 Harvester (PerkinElmer) and collected on 96-well Unifilter GF/C plates (PerkinElmer #6005174). The wells of the tissue culture plate on which cells had been labeled are washed with water (5×). The Unifilter plate membranes are washed with an additional 4.5 mL per well (3×1.0 mL and finally a 1.5 mL wash). The Unifi is sealed with a Backseal adhesive sheet (PerkinElmer), and the 50 μL/well of MicroScint-20 (Perkin Elmer) is added. Each plate is then sealed with a Topseal clear adhesive sheet (PerkinElmer). Plates are counted on a Topcount scintillation counter (PerkinElmer), at 1 minute per well. ^3H-thymidine counts per minute (cpm) are exported into Prism (GraphPad) for analysis and plotting. […] For plotting the data in Prism, the gemcitabine concentrations are transformed to log values, and dose-response curves are fit by non-linear regression. Neither top nor bottom fits are constrained. The ECtfs value is 0.3 nM.

SMILES: O=P1(NCCCl)OCCCN1CCCl (centres unmarked) [ifosphamide, reference compound]
- % T/C (SJCRH-30 RMS xenograft; comparator day 46): 34%

SMILES: COc1cccc2c1C(=O)c1c(O)c3c(c(O)c1C2=O)C[C@@](O)(C(=O)CO)C[C@@H]3O[C@H]1C[C@H](N)[C@H](O)[C@H](C)O1 [Doxorubicin, reference compound]
- % T/C (SJCRH-30 RMS xenograft; comparator day 56): 16%

SMILES: Nc1ccn([C@@H]2O[C@H](CO)[C@@H](O)C2(F)F)c(=O)n1 [gemcitabine, reference compound]
- percentage of proliferation inhibition (HT-29 cells; HT29 cells): 52%
- EC50 (HT-29 cells; Homo sapiens, HT-29, HT29 colon carcinoma cells): 37 nM

SMILES: CCc1c2c(nc3ccc(OC(=O)N4CCC(N5CCCCC5)CC4)cc13)-c1cc3c(c(=O)n1C2)COC(=O)[C@]3(O)CC [irinotecan, reference compound]
- % T/C (SJCRH-30 RMS xenograft; comparator day 46): 12%

— patent US12558345B2, “CHK1/2 inhibitors for use in the treatment of neuroblastomas and/or soft tissue sarcomas” (Eli Lilly and Company, priority 2015, dated 2026)
